Assay results as given in ChEMBL document CHEMBL4382229, “Benzofuran derivatives and their anti-tubercular, anti-bacterial activities” (Eur J Med Chem, 2019).
≈ marks a conversion by molar mass, not a printed value.

Tests used:
Format in all cases: functional
[1] = tested on: Pseudomonas aeruginosa; test: Potency index, ratio of streptomycin MIC to test compound MIC for Pseudomonas aeruginosa MTCC 1034
[2] = tested on: Bacillus subtilis; test: Antibacterial activity against Bacillus subtilis MTCC 1134 after 24 hrs by broth dilution method; conditions: MTCC 1134, 24 h
[3] = tested on: Bacillus subtilis; test: Potency index, ratio of streptomycin MIC to test compound MIC for Bacillus subtilis MTCC 1134
[4] = tested on: Escherichia coli; test: Potency index, ratio of streptomycin MIC to test compound MIC for Escherichia coli MTCC 1559
[5] = tested on: Escherichia coli; test: Antibacterial activity against Escherichia coli MTCC 1559 after 24 hrs by broth dilution method; conditions: MTCC 1559, 24 h
[6] = tested on: Pseudomonas aeruginosa; test: Antibacterial activity against Pseudomonas aeruginosa MTCC 1034 after 24 hrs by broth dilution method; conditions: MTCC 1034, 24 h
[7] = tested on: Mycobacterium tuberculosis; test: Antitubercular activity against Mycobacterium tuberculosis Erdman infected in BALB/c mouse assessed as reduction in bacterial load in lungs at 25 mg/kg, po administered once daily via gavage starting from 27 days post infection for 5 consecutive days per week for 4 weeks
[8] = tested on: Mycobacterium tuberculosis; test: Antitubercular activity against Mycobacterium tuberculosis H37Rv infected in BALB/c mouse assessed as reduction in bacterial load in lungs at 10 mg/kg, po administered once daily via gavage for 5 consecutive days per week for 2 weeks
[9] = tested on: Mycobacterium tuberculosis; test: Antitubercular activity against Mycobacterium tuberculosis Erdman infected in BALB/c mouse assessed as reduction in bacterial load in spleen at 25 mg/kg, po administered once daily via gavage starting from 27 days post infection for 5 consecutive days per week for 4 weeks
[10] = tested on: Staphylococcus aureus; test: Antibacterial activity against Staphylococcus aureus NCIM 2079 assessed as zone of inhibition at 1 ug/ml after 24 hrs by agar diffusion method; conditions: NCIM 2079, 24 h, read-out: IZ
[11] = tested on: Escherichia coli; test: Antibacterial activity against Escherichia coli ATCC 25922 assessed as diameter of inhibition zone at 5 ug/ml after 24 hrs by agar disc diffusion method; conditions: ATCC 25922, 24 h, read-out: IZ
[12] = tested on: Staphylococcus aureus; test: Antibacterial activity against Staphylococcus aureus assessed as diameter of inhibition zone at 250 ug/ml after 24 hrs by disc diffusion method; conditions: read-out: DIZ
[13] = tested on: Escherichia coli; test: Antibacterial activity against Escherichia coli assessed as diameter of inhibition zone at 250 ug/ml after 24 hrs by disc diffusion method; conditions: read-out: DIZ
[14] = tested on: Pseudomonas aeruginosa; test: Antibacterial activity against Pseudomonas aeruginosa ATCC 27953 assessed as diameter of inhibition zone at 5 ug/ml after 24 hrs by agar disc diffusion method; conditions: ATCC 27953, 24 h, read-out: IZ
[15] = tested on: Pseudomonas aeruginosa; test: Antibacterial activity against Pseudomonas aeruginosa NCIB 8650 assessed as zone of inhibition at 1 ug/ml after 24 hrs by agar diffusion method; conditions: NCIB 8650, 24 h, read-out: IZ
[16] = tested on: Escherichia coli; test: Antibacterial activity against Escherichia coli NCIM 2064 assessed as zone of inhibition at 1 ug/ml after 24 hrs by agar diffusion method; conditions: NCIM 2064, 24 h, read-out: IZ
[17] = tested on: Bacillus subtilis; test: Antibacterial activity against Bacillus subtilis NCIM 2439 assessed as zone of inhibition at 1 ug/ml after 24 hrs by agar diffusion method; conditions: NCIM 2439, 24 h, read-out: IZ
[18] = tested on: Staphylococcus aureus; test: Antibacterial activity against Staphylococcus aureus by broth dilution method
[19] = tested on: Escherichia coli; test: Potency index, ratio of ciprofloxacin MIC to test compound MIC for Escherichia coli
[20] = tested on: Pseudomonas aeruginosa; test: Antibacterial activity against Pseudomonas aeruginosa by broth dilution method
[21] = tested on: Staphylococcus aureus; test: Potency index, ratio of ciprofloxacin MIC to test compound MIC for Staphylococcus aureus
[22] = tested on: Bacillus subtilis; test: Antibacterial activity against Bacillus subtilis by broth dilution method
[23] = tested on: Escherichia coli; test: Antibacterial activity against Escherichia coli by broth dilution method
[24] = tested on: Bacillus subtilis; test: Potency index, ratio of ciprofloxacin MIC to test compound MIC for Bacillus subtilis

## Cc1ccc(-c2cc(-c3cc4ccccc4o3)nc(N)n2)s1
[1]
  Ratio: >3
[2]
  MIC: 4.32 to 6.32 µg/mL (≈ 14.1 to 20.6 µM)
[3]
  Ratio: >3
[4]
  Ratio: >3
[5]
  MIC: 4.32 to 6.32 µg/mL (≈ 14.1 to 20.6 µM)
[6]
  MIC: 4.32 to 6.32 µg/mL (≈ 14.1 to 20.6 µM)

## NNC(=O)c1ccncc1 [ISONIAZID]
[7]
  Activity: 1.1 log10CFU
[8]
  Activity: 6.7 log10CFU
[9]
  Activity: 2.5 log10CFU

## O=C(N[C@H](CO)[C@H](O)c1ccc([N+](=O)[O-])cc1)C(Cl)Cl [CHLORAMPHENICOL]
[10]
  zone of inhibition at 1 µg/mL: 21 to 32 mm
[11]
  zone of inhibition at 5 µg/mL: 21 to 32 mm
[12]
  zone of inhibition at 250 µg/mL: 27 mm
[13]
  zone of inhibition at 250 µg/mL: 17 mm
[14]
  zone of inhibition at 5 µg/mL: 21 to 32 mm
[15]
  zone of inhibition at 1 µg/mL: 21 to 32 mm
[16]
  zone of inhibition at 1 µg/mL: 21 to 32 mm
[17]
  zone of inhibition at 1 µg/mL: 21 to 32 mm

## Cc1ccc2occ(-c3cc4ccccc4oc3=O)c2c1
[18]
  MIC: 0.2 µg/mL (≈ 0.724 µM)
[19]
  Ratio: >=5
[20]
  MIC: 6.25 to 100 µg/mL (≈ 22.6 to 362 µM)
[21]
  Ratio: >=5
[22]
  MIC: 0.4 µg/mL (≈ 1.45 µM)
[23]
  MIC: 0.2 µg/mL (≈ 0.724 µM)
[24]
  Ratio: >=5
